Among the data in US20260092076A1, “NOVEL COMPOUNDS” (Hoffmann-La Roche Inc., priority 2023, published 2026) are IC50 values, retold here.

Structures can show the parent of a compound that is named as a salt.

Assay [1] deals with T1, NLRP3 (Homo sapiens, UniProt Q96P20). As to the kind of experiment: THP-1 cells pyroptosis assay. In kind it is cell-based. As to conditions: THP-1 cells with 1.0 μg/ml LPS, compound 3 hours, nigericin 5 μM 1 hr, resazurin readout. More on the design: Seed THP-1 cells (25,000 cells/well) containing 1.0 μg/ml LPS in 40 μl of RPMI medium; host or cells: THP-1 cells, LPS-primed, nigericin-stimulated. The method, then: THP-1 cells (ATCC #TIB-202) were grown in RPMI containing L-glutamine (Gibco #11835) supplemented with 1 mM sodium pyruvate (Sigma #S8636) and penicillin (100 units/ml)/streptomycin (0.1 mg/ml) (Sigma #P4333) in 10% Fetal Bovine Serum (FBS) (Sigma #F0804). The cells were routinely passaged and grown to confluency (˜10^6 cells/ml). On the day of the experiment, THP-1 cells were harvested and resuspended into RPMI medium (without FBS). The cells were then counted and viability (>90%) checked by Trypan blue (Sigma #T8154). Appropriate dilutions were made to give a concentration of 625,000 cells/ml. To this diluted cell solution was added LPS (Sigma #L4524) to give a 1 μg/ml Final Assay Concentration (FAC). 40 μl of the final preparation was aliquoted into each well of a 96-well plate. The plate thus prepared was used for compound screening.
The following method step-by-step assay was followed for compound screening. • Seed THP-1 cells (25,000 cells/well) containing 1.0 μg/ml LPS in 40 μl of RPMI medium (without FBS) in 96-well, black walled, clear bottom cell culture plates coated with poly-D-lysine (VWR #734-0317) • Add 5 μl compound (8 points half-log dilution, with 10 μM top dose) or vehicle (DMSO 0.1% FAC) to the appropriate wells • Incubate for 3 hours at 37° C., 5% CO2 • Add 5 μl nigericin (Sigma #N7143) (FAC 5 μM) to all wells • Incubate for 1 hr at 37° C., 5% CO2 • At the end of the incubation period, spin plates at 300×g for 3 mins and remove supernatant • Then add 50 μl of resazurin (Sigma #R7017) (FAC 100 μM resazurin in RPMI medium without FBS) and incubate plates for a further 1-2 hours at 37° C. and 5% CO2 • Plates were read in an Envision reader at Ex 560 nm and Em 590 nm • IC50 data is fitted to a non-linear regression equation (log inhibitor vs response-variable slope 4-parameters)
In general terms: Resazurin is reduced to fluorescent resorufin, in cell work by metabolically active cells.

The target in assay [2] is T1, NLRP3. As to the kind of experiment: Human whole blood IL-1β release assay. It counts as cell-based. The following applies: human whole blood with 1 μg/ml LPS, compound 3 hours, nigericin 10 μM 1 hr, IL-1β by AlphaLisa. As to the method: For systemic delivery, the ability to inhibit NLRP3 when the compounds are present within the bloodstream is of great importance. For this reason, the NLRP3 inhibitory activity of a number of compounds in human whole blood was investigated in accordance with the following protocol. • Human whole blood in Li-heparin tubes was obtained from healthy donors from a volunteer donor panel. • Plate out 80 μl of whole blood containing 1 μg/ml of LPS in 96-well, clear bottom cell culture plate (Corning #3585) • Add 10 μl compound (8 points half-log dilution with 10 μM top dose) or vehicle (DMSO 0.1% FAC) to the appropriate wells • Incubate for 3 hours at 37° C., 5% CO2 • Add 10 μl nigericin (Sigma #N7143) (10 μM FAC) to all wells • Incubate for 1 hr at 37° C., 5% CO2 • At the end of the incubation period, spin plates at 300×g for 5 mins to pellet cells and remove 20 μl of supernatant and add to 96-well v-bottom plates for IL-1β analysis (note: these plates containing the supernatants can be stored at −80° C. to be analysed at a later date) • IL-1β was measured according to the manufacturer protocol (Perkin Elmer-AlphaLisa IL-1 Kit AL220F-5000) • IC50 data is fitted to a non-linear regression equation (log inhibitor vs response-variable slope 4-parameters)

T1 sequence (Q96P20 whole entry): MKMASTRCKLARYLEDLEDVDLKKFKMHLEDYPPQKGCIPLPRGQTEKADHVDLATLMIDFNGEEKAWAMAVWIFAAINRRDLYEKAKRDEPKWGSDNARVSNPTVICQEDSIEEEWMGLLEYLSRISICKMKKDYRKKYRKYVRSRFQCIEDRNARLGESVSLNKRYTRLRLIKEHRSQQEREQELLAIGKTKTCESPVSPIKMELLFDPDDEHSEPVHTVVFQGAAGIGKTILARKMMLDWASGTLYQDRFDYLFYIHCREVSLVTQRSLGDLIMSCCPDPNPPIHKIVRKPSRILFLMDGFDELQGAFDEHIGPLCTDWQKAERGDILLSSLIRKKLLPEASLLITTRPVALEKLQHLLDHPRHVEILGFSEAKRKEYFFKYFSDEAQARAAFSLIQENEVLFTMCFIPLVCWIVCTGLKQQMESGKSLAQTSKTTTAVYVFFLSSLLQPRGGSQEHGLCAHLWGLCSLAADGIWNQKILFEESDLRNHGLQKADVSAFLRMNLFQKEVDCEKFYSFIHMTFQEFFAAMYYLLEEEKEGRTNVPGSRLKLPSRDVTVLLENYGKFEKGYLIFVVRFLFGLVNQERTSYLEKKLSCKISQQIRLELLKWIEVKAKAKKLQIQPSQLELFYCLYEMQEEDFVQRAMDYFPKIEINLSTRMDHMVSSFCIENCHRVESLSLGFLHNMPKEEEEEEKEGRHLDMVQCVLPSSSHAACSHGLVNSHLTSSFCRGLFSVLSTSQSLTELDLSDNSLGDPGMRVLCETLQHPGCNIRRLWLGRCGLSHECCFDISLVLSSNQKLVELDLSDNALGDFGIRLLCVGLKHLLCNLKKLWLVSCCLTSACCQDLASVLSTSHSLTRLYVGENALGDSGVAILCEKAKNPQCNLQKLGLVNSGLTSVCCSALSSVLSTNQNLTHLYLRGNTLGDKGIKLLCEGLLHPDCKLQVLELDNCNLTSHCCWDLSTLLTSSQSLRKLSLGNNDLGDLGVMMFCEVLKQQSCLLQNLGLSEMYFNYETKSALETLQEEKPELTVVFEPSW

Consider `COc1cc2c(cn1)CN(c1nc3nc(-c4c(C)cc(C(F)(F)F)cc4O)ccc3o1)C2` [Example 12, 2-[2-(6-Methoxy-1,3-dihydropyrrolo[3,4-c]pyridin-2-yl)oxazolo[4,5-b]pyridin-5-yl]-3-methyl-5-(trifluoromethyl)phenol], for which the concentration for half-maximal inhibition (IC50) (as a rule, the concentration that inhibits the measured activity by half) was 0.002 µM against NLRP3 [1] and 0.84 µM on NLRP3 [2].
The like results for `Cc1cc(Cl)cc(O)c1-c1ccc2oc(N3Cc4cc(=O)[nH]nc4C3)nc2n1` [Example 38, 6-[5-(4-chloro-2-hydroxy-6-methyl-phenyl)oxazolo[4,5-b]pyridin-2-yl]-5,7-dihydro-2H-pyrrolo[3,4-c]pyridazin-3-one] were, in that order, 0.022 µM and 0.168 µM.
For `Cc1cc(Cl)cc(O)c1-c1ccc2oc(N3Cc4c[nH]nc4C3)nc2n1` [Example 14, 5-Chloro-2-[2-(4,6-dihydro-2H-pyrrolo[3,4-c]pyrazol-5-yl)oxazolo[4,5-b]pyridin-5-yl]-3-methyl-phenol], in that order: 0.0562 µM and 0.305 µM.
For the compound `Cc1cc(C(F)(F)F)cc(O)c1-c1ccc2oc(N3Cc4cc(=O)n(C)cc4C3)nc2n1` [Example 2, 2-[5-[2-Hydroxy-6-methyl-4-(trifluoromethyl)phenyl]oxazolo[4,5-b]pyridin-2-yl]-5-methyl-1,3-dihydropyrrolo[3,4-c]pyridin-6-one], the IC50 at NLRP3 [1] was found to be 0.0033 µM; on NLRP3 [2], 0.301 µM.
The like results for `Cc1cc(C(F)(F)F)cc(O)c1-c1ccc2oc(N3CCc4cc(=O)[nH]cc4C3)nc2n1` [Example 19, 7-[5-[2-Hydroxy-6-methyl-4-(trifluoromethyl)phenyl]oxazolo[4,5-b]pyridin-2-yl]-2,5,6,8-tetrahydro-2,7-naphthyridin-3-one] were, in that order, 0.0111 µM and 0.962 µM.
For `Cc1cc(Cl)cc(O)c1-c1ccc2oc(N3CCc4[nH]c(=O)ccc4C3)nc2n1` [Example 37, 6-[5-(4-Chloro-2-hydroxy-6-methyl-phenyl)oxazolo[4,5-b]pyridin-2-yl]-1,5,7,8-tetrahydro-1,6-naphthyridin-2-one], in that order: 0.0711 µM and 0.676 µM.
Turning to `Cc1cc(Cl)cc(O)c1-c1ccc2oc(N3CCc4ccncc4C3)nc2n1` [Example 15, 5-Chloro-2-[2-(3,4-dihydro-1H-2,7-naphthyridin-2-yl)oxazolo[4,5-b]pyridin-5-yl]-3-methyl-phenol], the half-maximal inhibitory concentration (IC50) was determined as 0.0105 µM against NLRP3 [1] and 0.173 µM at NLRP3 [2].
The like results for `Cc1cc(Cl)cc(O)c1-c1ccc2oc(N3CCc4n[nH]cc4C3)nc2n1` [Example 25, 5-Chloro-3-methyl-2-[2-(2,4,6,7-tetrahydropyrazolo[4,3-c]pyridin-5-yl)oxazolo[4,5-b]pyridin-5-yl]phenol] were, in that order, 0.0256 µM and 0.142 µM.
For `Cc1cc(Cl)cc(O)c1-c1ccc2oc(N3CCc4ncncc4C3)nc2n1` [Example 31, 5-Chloro-2-[2-(7,8-dihydro-5H-pyrido[4,3-d]pyrimidin-6-yl)oxazolo[4,5-b]pyridin-5-yl]-3-methyl-phenol], in that order: 0.0179 µM and 0.345 µM.
For `Cc1ncc2c(n1)CCN(c1nc3nc(-c4c(C)cc(Cl)cc4O)ccc3o1)C2` [Example 11, 5-Chloro-3-methyl-2-[2-(2-methyl-7,8-dihydro-5H-pyrido[4,3-d]pyrimidin-6-yl)oxazolo[4,5-b]pyridin-5-yl]phenol], in that order: 0.0271 µM and 0.225 µM.
In the case of `Cc1cc(Cl)cc(O)c1-c1ccc2oc(N3CCc4[nH]c(=O)ncc4C3)nc2n1` [Example 36, 6-[5-(4-Chloro-2-hydroxy-6-methyl-phenyl)oxazolo[4,5-b]pyridin-2-yl]-1,5,7,8-tetrahydropyrido[4,3-d]pyrimidin-2-one], the concentration for half-maximal inhibition (IC50) against NLRP3 [1] was 0.0463 µM; on NLRP3 [2], 0.168 µM.
For the compound `Cc1cc(C(F)(F)F)cc(O)c1-c1ccc2oc(N3Cc4cc(=O)n(C)nc4C3)nc2n1` [Example 22, 6-[5-[2-Hydroxy-6-methyl-4-(trifluoromethyl)phenyl]oxazolo[4,5-b]pyridin-2-yl]-2-methyl-5,7-dihydropyrrolo[3,4-c]pyridazin-3-one], the IC50 is 0.0207 µM against NLRP3 [1] and no less than 10 µM at NLRP3 [2].
For `Cc1cc(C(F)(F)F)cc(O)c1-c1cnc2oc(N3Cc4cnc(O)cc4C3)nc2n1` [Example 43, 2-[5-[2-Hydroxy-6-methyl-4-(trifluoromethyl)phenyl]oxazolo[4,5-b]pyrazin-2-yl]-1,3-dihydropyrrolo[3,4-c]pyridin-6-ol; 2,2,2-trifluoroacetic acid], in that order: 0.0017 µM and 0.128 µM.
For `Cc1cc(C(F)(F)F)cc(O)c1-c1ccc2oc(N3Cc4cc(=O)n(CCO)cc4C3)nc2n1` [Example 5, 5-(2-Hydroxyethyl)-2-[5-[2-hydroxy-6-methyl-4-(trifluoromethyl)phenyl]oxazolo[4,5-b]pyridin-2-yl]-1,3-dihydropyrrolo[3,4-c]pyridin-6-one], the IC50 at NLRP3 [1] came out at 0.0026 µM; on NLRP3 [2], 0.151 µM.
The like results for `Cc1cc(C#N)cc(O)c1-c1ccc2oc(N3CCc4ncncc4C3)nc2n1` [Example 17, 4-[2-(7,8-Dihydro-5H-pyrido[4,3-d]pyrimidin-6-yl)oxazolo[4,5-b]pyridin-5-yl]-3-hydroxy-5-methyl-benzonitrile] were, in that order, 0.0349 µM and 0.225 µM.
Take `Cc1cc(Cl)cc(O)c1-c1ccc2oc(N3CCc4cc(=O)[nH]cc4C3)nc2n1` [Example 27, 7-[5-(4-Chloro-2-hydroxy-6-methyl-phenyl)oxazolo[4,5-b]pyridin-2-yl]-2,5,6,8-tetrahydro-2,7-naphthyridin-3-one]: the results for the concentration for half-maximal inhibition (IC50) against NLRP3 [1] and on NLRP3 [2] were 0.0522 µM and 0.423 µM, respectively.
The like results for `Cc1cc(C(F)(F)F)cc(O)c1-c1ccc2oc(N3Cc4cncnc4C3)nc2n1` [Example 18, 2-[2-(5,7-Dihydropyrrolo[3,4-d]pyrimidin-6-yl)oxazolo[4,5-b]pyridin-5-yl]-3-methyl-5-(trifluoromethyl)phenol] were, in that order, 0.0069 µM and 2.35 µM.
The like results for `Cc1cc(Cl)cc(O)c1-c1ccc2oc(N3Cc4cncnc4C3)nc2n1` [Example 13, 5-Chloro-2-[2-(5,7-dihydropyrrolo[3,4-d]pyrimidin-6-yl)oxazolo[4,5-b]pyridin-5-yl]-3-methyl-phenol formic acid salt] were, in that order, 0.015 µM and 0.304 µM.
With `OCc1cc(Cl)cc(O)c1-c1cnc2oc(N3Cc4ccncc4C3)nc2n1` [Example 30, 5-Chloro-2-[2-(1,3-dihydropyrrolo[3,4-c]pyridin-2-yl)oxazolo[4,5-b]pyrazin-5-yl]-3-(hydroxymethyl)phenol], the IC50 against NLRP3 [1] worked out at 0.0248 µM; on NLRP3 [2], 0.326 µM.
